Series [1] in a line: Dissociation constant, pKa of the compound. The series is classed as physicochemical.
Series [2] is described as follows: Oral bioavailability in rat at 20 umol/kg. It counts as ADME, organism-based. As to conditions: in vivo, at 20 µmol/kg.
The test system of a further series is Hepatocyte. Briefly: Metabolic stability in human hepatocytes measured per 10^6 cells. The series is classed as ADME, cell-based.
Series [3] in a line: Renal clearance in rat at 5 umol/kg, iv and 20 umol/kg, po. The series is classed as ADME, organism-based, Kidney. To be noted: in vivo.
Series [4] is described as follows: Total clearance in rat at 5 umol/kg, iv and 20 umol/kg, po. It counts as ADME, organism-based. To be noted: in vivo.
Series [5] is described as follows: Renal clearance in dog at 3 umol/kg, iv and 6 umol/kg, po. It counts as ADME, organism-based, Canis lupus familiaris, Kidney. To be noted: in vivo.
Series [6] can be described thus: Metabolic stability in human liver microsomes. It counts as ADME. To be noted: read-out: Stability. On the technique in general: Liver microsomes are vesicles of endoplasmic reticulum, rich in cytochrome P450 enzymes.
The nature of series [7]: Total clearance in dog at 3 umol/kg, iv and 6 umol/kg, po. To be noted: in vivo. It counts as ADME, organism-based, Canis lupus familiaris.
Series [8] is described as follows: Drug excretion in rat urine. It counts as ADME. To be noted: in vivo.
The nature of series [9]: Oral bioavailability in dog at 6 umol/kg. To be noted: in vivo, at 6 µmol/kg. It counts as ADME, organism-based, Canis lupus familiaris.
Series [10] is described as follows: Drug metabolism in human hepatocytes assessed as glucuronidation on isoxazolone ring. It counts as ADME, cell-based, Hepatocyte.
The nature of series [11]: Drug excretion in dog urine. It counts as ADME, Canis lupus familiaris. As to conditions: read-out: Drug excretion.

For orientation: pKa means the pH at which an ionisable group is half protonated. Broadly, the bioavailability is the share of a dose that reaches the circulation, judged against a reference dose that is usually intravenous. Low values mean little systemic uptake, high ones much systemic uptake.

Bounds are passed on as bounds.

`O=c1cc([C@@H]2CCN[C@H](Cc3ccccc3)C2)o[nH]1` gave a pKa in series [1] of 4.4.

With `O=c1cc([C@H]2CCN[C@@H](CCc3ccccc3)C2)o[nH]1`, the figures for the bioavailability in [2] and in series [9] were 19% and 59%, respectively. In the series on Hepatocyte, the Stability is < 1 µL/min. The CL renal came out at 6 mL/min/kg in [3] and 0.12 mL/min/kg in series [5]. Moreover, the values for the clearance in [4] and in series [7] were 24 mL/min/kg and 1.8 mL/min/kg, respectively. Moreover, in series [6], the microsomal CLint was < 5 µL/min/mg. The Drug excretion in [8] was 25 %ID. Moreover, in series [10], the Drug metabolism result is given as “metabolite_detected”.

For `O=c1cc([C@H]2CCN[C@H](Cc3ccccc3)C2)o[nH]1`, in series [1], the pKa came to 4.9.

As to `O=c1cc([C@H]2CCN[C@@H](Cc3ccccc3)C2)o[nH]1`, the results for the bioavailability in [2] and in [9] were 33% and 73%, respectively. In addition, the Stability in the series on Hepatocyte was < 1 µL/min. The CL renal in [3] stood at 11 mL/min/kg; in series [5], 0.2 mL/min/kg. In addition, the clearance in series [4] came to 46 mL/min/kg; in series [7], 2.9 mL/min/kg. Besides, the microsomal CLint in series [6] is < 5 µL/min/mg. The Drug excretion in series [8] is listed as 25 %ID. In addition, the Drug metabolism result in [10] is listed as “metabolite_detected”. Besides, the dose excreted in [11] is 7%.

In the case of `CC(C)(C)C[C@H]1C[C@@H](c2cc(=O)[nH]o2)CCN1`, the bioavailability in series [2] was found to be 39%; in series [9], 53%. The Stability in the series on Hepatocyte is < 1 µL/min. The CL renal in [3] was determined as 6 mL/min/kg; in [5] it was 0.8 mL/min/kg. Moreover, the clearance is 13 mL/min/kg in series [4] and 1.1 mL/min/kg in [7]. In addition, the microsomal CLint in series [6] is < 5 µL/min/mg. In addition, the Drug excretion in [8] came to 45 %ID. Besides, the Drug metabolism result in [10] is given as “metabolite_detected”. The dose excreted in series [11] was found to be 70%.

These data come from ChEMBL document CHEMBL3286179, “Discovery of the Fibrinolysis Inhibitor AZD6564, Acting via Interference of a Protein-Protein Interaction” (ACS Med Chem Lett, 2014).
